Laboratory results from ChEMBL document CHEMBL3864146, “5-Alkyloxytryptamines are membrane-targeting, broad-spectrum antibiotics” (Bioorg Med Chem Lett, 2016).
Active and inactive are the calls of the source. The rule behind the calls is not given here.

Legend:
[1] = tested on: Escherichia coli; test: Antibacterial activity against Escherichia coli BW25113 after 16 to 18 hrs by micro-dilution method; format: functional
[2] = tested on: Escherichia coli; test: Antibacterial activity against tolC-deficient Escherichia coli BW25113 after 16 to 18 hrs by micro-dilution method; format: functional
[3] = tested on: Bacillus subtilis; test: Antibacterial activity against Bacillus subtilis 168 after 16 to 18 hrs by micro-dilution method; format: functional; conditions: subsp. subtilis str. 168
[4] = tested on: Pseudomonas aeruginosa; test: Antibacterial activity against Pseudomonas aeruginosa after 16 to 18 hrs by micro-dilution method; format: functional
[5] = tested on: Salmonella typhimurium; test: Antibacterial activity against Salmonella typhimurium after 16 to 18 hrs by micro-dilution method; format: functional, Salmonella enterica subsp. enterica serovar Typhimurium; conditions: Salmonella enterica
[6] = tested on: Vibrio cholerae; test: Antibacterial activity against Vibrio cholerae after 16 to 18 hrs by micro-dilution method; format: functional
[7] = tested on: Shigella boydii; test: Antibacterial activity against Shigella boydii after 16 to 18 hrs by micro-dilution method; format: functional
[8] = tested on: Klebsiella pneumoniae; test: Antibacterial activity against Klebsiella pneumoniae after 16 to 18 hrs by micro-dilution method; format: functional
[9] = tested on: Klebsiella aerogenes; test: Antibacterial activity against Enterobacter aerogenes after 16 to 18 hrs by micro-dilution method; format: functional
[10] = tested on: Acinetobacter baumannii; test: Antibacterial activity against Acinetobacter baumannii after 16 to 18 hrs by micro-dilution method; format: functional
[11] = tested on: Edwardsiella tarda; test: Antibacterial activity against Edwardsiella tarda after 16 to 18 hrs by micro-dilution method; format: functional
[12] = tested on: Morganella morganii; test: Antibacterial activity against Morganella morganii after 16 to 18 hrs by micro-dilution method; format: functional
[13] = tested on: Staphylococcus aureus; test: Antibacterial activity against Staphylococcus aureus after 16 to 18 hrs by micro-dilution method; format: functional
[14] = tested on: Streptococcus pyogenes; test: Antibacterial activity against Streptococcus pyogenes after 16 to 18 hrs; format: functional
[15] = tested on: Escherichia coli; test: Bactericidal activity against Escherichia coli BW25113 after 22 hrs by micro-dilution method; format: functional; conditions: BW25113, 22 h
[16] = tested on: Escherichia coli; test: Bactericidal activity against tolC-deficient Escherichia coli BW25113 after 22 hrs by micro-dilution method; format: functional; conditions: BW25113, 22 h
[17] = tested on: Bacillus subtilis; test: Bactericidal activity against Bacillus subtilis 168 after 22 hrs by micro-dilution method; format: functional; conditions: subsp. subtilis str. 168, 22 h
[18] = tested on: Pseudomonas aeruginosa; test: Bactericidal activity against Pseudomonas aeruginosa after 22 hrs by micro-dilution method; format: functional
[19] = tested on: Salmonella typhimurium; test: Bactericidal activity against Salmonella typhimurium after 22 hrs by micro-dilution method; format: functional, Salmonella enterica subsp. enterica serovar Typhimurium; conditions: Salmonella enterica
[20] = tested on: Vibrio cholerae; test: Bactericidal activity against Vibrio cholerae after 22 hrs by micro-dilution method; format: functional
[21] = tested on: Shigella boydii; test: Bactericidal activity against Shigella boydii after 22 hrs by micro-dilution method; format: functional
[22] = tested on: Klebsiella pneumoniae; test: Bactericidal activity against Klebsiella pneumoniae after 22 hrs by micro-dilution method; format: functional
[23] = tested on: Klebsiella aerogenes; test: Bactericidal activity against Enterobacter aerogenes after 22 hrs by micro-dilution method; format: functional
[24] = tested on: Acinetobacter baumannii; test: Bactericidal activity against Acinetobacter baumannii after 22 hrs by micro-dilution method; format: functional
[25] = tested on: Edwardsiella tarda; test: Bactericidal activity against Edwardsiella tarda after 22 hrs by micro-dilution method; format: functional
[26] = tested on: Morganella morganii; test: Bactericidal activity against Morganella morganii after 22 hrs by micro-dilution method; format: functional
[27] = tested on: Staphylococcus aureus; test: Bactericidal activity against Staphylococcus aureus after 22 hrs by micro-dilution method; format: functional
[28] = tested on: Streptococcus pyogenes; test: Bactericidal activity against Streptococcus pyogenes after 22 hrs; format: functional
[29] = tested on: Escherichia coli; test: Ratio of MBC to MIC for Escherichia coli BW25113 after 16 to 18 hrs by micro-dilution method; format: functional
[30] = tested on: Escherichia coli; test: Ratio of MBC to MIC for tolC-deficient Escherichia coli BW25113; format: functional
[31] = tested on: Bacillus subtilis; test: Ratio of MBC to MIC for Bacillus subtilis 168; format: functional, subsp. subtilis str. 168
[32] = tested on: Pseudomonas aeruginosa; test: Ratio of MBC to MIC for Pseudomonas aeruginosa; format: functional
[33] = tested on: Salmonella typhimurium; test: Ratio of MBC to MIC for Salmonella typhimurium; format: functional, Salmonella enterica subsp. enterica serovar Typhimurium
[34] = tested on: Vibrio cholerae; test: Ratio of MBC to MIC for Vibrio cholerae; format: functional
[35] = tested on: Shigella boydii; test: Ratio of MBC to MIC for Shigella boydii; format: functional
[36] = tested on: Klebsiella pneumoniae; test: Ratio of MBC to MIC for Klebsiella pneumoniae; format: functional
[37] = tested on: Klebsiella aerogenes; test: Ratio of MBC to MIC for Enterobacter aerogenes; format: functional
[38] = tested on: Acinetobacter baumannii; test: Ratio of MBC to MIC for Acinetobacter baumannii; format: functional
[39] = tested on: Edwardsiella tarda; test: Ratio of MBC to MIC for Edwardsiella tarda; format: functional
[40] = tested on: Morganella morganii; test: Ratio of MBC to MIC for Morganella morganii; format: functional
[41] = tested on: Staphylococcus aureus; test: Ratio of MBC to MIC for Staphylococcus aureus; format: functional
[42] = tested on: Streptococcus pyogenes; test: Ratio of MBC to MIC for Streptococcus pyogenes; format: functional
[43] = tested on: Escherichia coli; test: Induction of membrane permeabilization in Escherichia coli BW25113 at MIC to 2 times MIC after 5 mins by propidium iodide staining-based flow cytometric method; format: functional
[44] = tested on: Escherichia coli; test: Induction of membrane permeabilization in Escherichia coli BW25113 at MIC after 15 mins by propidium iodide staining-based fluorescence microplate reader method relative to 50% ethanol; format: functional
[45] = tested on: Escherichia coli; test: Antibacterial activity against Escherichia coli BW25113 by multiple copy suppression assay; format: functional
[46] = tested on: Escherichia coli; test: Antibacterial activity against Escherichia coli 5-NOT mutant 8 harboring ydeA gene mutation by multiple copy suppression assay; format: functional
[47] = tested on: Escherichia coli; test: Antibacterial activity against Escherichia coli 5-NOT mutant 8 harboring pykA gene mutation by multiple copy suppression assay; format: functional
[48] = tested on: Escherichia coli; test: Antibacterial activity against Escherichia coli 5-NOT mutant 8 harboring otsA gene mutation by multiple copy suppression assay; format: functional
[49] = tested on: Escherichia coli; test: Antibacterial activity against Escherichia coli 5-NOT mutant 15-1 harboring ydeA gene mutation by multiple copy suppression assay; format: functional
[50] = tested on: Escherichia coli; test: Antibacterial activity against Escherichia coli 5-NOT mutant 15-1 harboring thrS gene mutation by multiple copy suppression assay; format: functional
[51] = tested on: Escherichia coli; test: Antibacterial activity against Escherichia coli 5-NOT mutant 15-1 harboring pykA gene mutation by multiple copy suppression assay; format: functional
[52] = tested on: Escherichia coli; test: Adjuvant activity assessed as potentiation of chloramphenicol-induced antibacterial activity against Escherichia coli BW25113 at 0.5 times MIC after 16 to 18 hrs by checkerboard assay (reference value: 8 ng/ml); format: functional
[53] = tested on: Escherichia coli; test: Adjuvant activity assessed as potentiation of chloramphenicol-induced antibacterial activity against Escherichia coli BW25113 at 0.25 times MIC after 16 to 18 hrs by checkerboard assay (reference value: 8 ng/ml); format: functional
[54] = tested on: Escherichia coli; test: Adjuvant activity assessed as potentiation of tetracycline-induced antibacterial activity against Escherichia coli BW25113 at 0.5 times MIC after 16 to 18 hrs by checkerboard assay (reference value: 2 ng/ml); format: functional
[55] = tested on: Escherichia coli; test: Adjuvant activity assessed as potentiation of tetracycline-induced antibacterial activity against Escherichia coli BW25113 at 0.25 times MIC after 16 to 18 hrs by checkerboard assay (reference value: 2 ng/ml); format: functional
[56] = tested on: Escherichia coli; test: Adjuvant activity assessed as potentiation of ciprofloxacin-induced antibacterial activity against Escherichia coli BW25113 at 0.5 times MIC after 16 to 18 hrs by checkerboard assay (reference value: 13 ng/ml); format: functional
[57] = tested on: Escherichia coli; test: Adjuvant activity assessed as potentiation of ciprofloxacin-induced antibacterial activity against Escherichia coli BW25113 at 0.25 times MIC after 16 to 18 hrs by checkerboard assay (reference value: 13 ng/ml); format: functional
[58] = tested on: Escherichia coli; test: Adjuvant activity assessed as potentiation of rifampicin-induced antibacterial activity against Escherichia coli BW25113 at 0.5 times MIC after 16 to 18 hrs by checkerboard assay (reference value: 8 ng/ml); format: functional
[59] = tested on: Escherichia coli; test: Adjuvant activity assessed as potentiation of rifampicin-induced antibacterial activity against Escherichia coli BW25113 at 0.25 times MIC after 16 to 18 hrs by checkerboard assay (reference value: 8 ng/ml); format: functional
[60] = species on record: Homo sapiens; test: Selectivity ratio of Ki for 5-HT1A receptor (unknown origin) to Ki for human 5-HT1D receptor

CCCCCCCCCOc1ccc2[nH]cc(CCN)c2c1.Cl
MIC [1]: 6 µg/mL
MIC [2]: 1.5 µg/mL
MIC [3]: 0.76 µg/mL
MIC [4]: 24 to 96 µg/mL
MIC [5]: 6 to 24 µg/mL
MIC [6]: 6 to 24 µg/mL
MIC [7]: 6 µg/mL
MIC [8]: 6 µg/mL
MIC [9]: 6 to 24 µg/mL
MIC [10]: 6 µg/mL
MIC [11]: 6 to 12 µg/mL
MIC [12]: 12 to 24 µg/mL
MIC [13]: 6 µg/mL
MIC [14]: 24 µg/mL
MBC [15]: 12 µg/mL
MBC [16]: 6 µg/mL
MBC [17]: 0.76 µg/mL
MBC [18]: 96 µg/mL
MBC [19]: 24 µg/mL
MBC [20]: 24 µg/mL
MBC [21]: 6 µg/mL
MBC [22]: 6 µg/mL
MBC [23]: > 24 µg/mL
MBC [24]: 6 µg/mL
MBC [25]: 12 µg/mL
MBC [26]: 24 µg/mL
MBC [27]: 6 µg/mL
MBC [28]: 24 µg/mL
Ratio [29]: 2
Ratio [30]: 4
Ratio [31]: 1
Ratio [32]: 4
Ratio [33]: 4
Ratio [34]: 4
Ratio [35]: 1
Ratio [36]: 1
Ratio [37]: >4
Ratio [38]: 1
Ratio [39]: 2
Ratio [40]: 2
Ratio [41]: 2
Ratio [42]: 1
Activity [43]: Active
Activity [44]: 100%
MIC [45]: 80 µM
MIC [46]: 80 µM
MIC [47]: 80 µM
MIC [48]: 80 µM
MIC [49]: 80 µM
MIC [50]: 80 µM
MIC [51]: 80 µM
MIC [52]: 0.008 µg/mL
MIC [53]: 0.008 µg/mL
MIC [54]: 0.002 µg/mL
MIC [55]: 0.002 µg/mL
MIC [56]: 0.013 µg/mL
MIC [57]: 0.013 µg/mL
MIC [58]: 0.008 µg/mL
MIC [59]: 0.008 µg/mL
Ratio Ki [60]: 300
